From article PMC11178787, “Development of a natural product optimization strategy for inhibitors against MraY, a promising antibacterial target” (Nature Communications, 2024)
≈ marks a conversion by molar mass, not a printed value. Where two headings read alike, the source gives them in different places.

Tests used:
Experiment in all cases: microbe, parasite or virus in culture
[1] = test system: T1, E. faecalis(VRE) ATCC 51299; set-up: CLSI broth microdilution MIC in MHB-II, single trial; conditions: Enterococcus faecalis, 18 h
T1 construct: ATCC 51299 (VRE)
Procedure: (§1) MICs were determined by a microdilution broth method as recommended by the CLSI with MHB-II. For MICs of stable analogues, a 2-fold dilution of each compound was prepared in DMSO at 100-fold of the final concentration. The strains were inoculated with 5 × 10^5 cfu/mL in 96-well plates (each 100 μL/well), and 1 μL of DMSO solutions of the samples were added (contained less than 1% DMSO). The plates were incubated at 37 °C for 18 h and then MICs were determined. MICs of stable analogues in Table 1 were the highest value in three trials. MICs in Supplementary Table 1 were determined in one trial.

E. faecium ATCC 35667 = test system: T2, E. faecium ATCC 35667; set-up: CLSI broth microdilution MIC in MHB-II, single trial; conditions: Enterococcus faecium, ATCC35667, 18 h
T2 construct: ATCC 35667
Procedure: as §1

[2] = test system: T3, E. faecium(VRE) ATCC 51559; set-up: CLSI broth microdilution MIC in MHB-II, single trial; conditions: Enterococcus faecium, 18 h
T3 construct: ATCC 51559 (VRE)
Procedure: as §1

[3] = test system: T4, E. faecium(VRE) ATCC 51858; set-up: CLSI broth microdilution MIC in MHB-II, single trial; conditions: Enterococcus faecium, 18 h
T4 construct: ATCC 51858 (VRE)
Procedure: as §1

S. aureus ATCC 29213 = test system: T5, S. aureus ATCC 29213; set-up: CLSI broth microdilution MIC in MHB-II, single trial; conditions: Staphylococcus aureus, ATCC29213, 18 h
T5 construct: ATCC 29213
Procedure: as §1

[4] = test system: T6, Staphylococcus aureus MRSA JE2; set-up: CLSI broth microdilution MIC in MHB-II, single trial; conditions: 18 h
T6 construct: JE2 (MRSA)
Procedure: as §1

Enterococcus faecalis 21 = test system: T7, Enterococcus faecalis 21; set-up: CLSI broth microdilution MIC in MHB-II; conditions: Enterococcus faecalis, 21, 18 h, read-out: MIC
T7 construct: 21
Procedure: as §1

Enterococcus faecalis 22 = test system: T8, Enterococcus faecalis 22; set-up: CLSI broth microdilution MIC in MHB-II; conditions: Enterococcus faecalis, 22, 18 h, read-out: MIC
T8 construct: 22
Procedure: as §1

Enterococcus faecalis 23 = test system: T9, Enterococcus faecalis 23; set-up: CLSI broth microdilution MIC in MHB-II; conditions: Enterococcus faecalis, 23, 18 h, read-out: MIC
T9 construct: 23
Procedure: as §1

Enterococcus faecalis 24 = test system: T10, Enterococcus faecalis 24; set-up: CLSI broth microdilution MIC in MHB-II; conditions: Enterococcus faecalis, 24, 18 h, read-out: MIC
T10 construct: 24
Procedure: as §1

Enterococcus faecalis 25 = test system: T11, Enterococcus faecalis 25; set-up: CLSI broth microdilution MIC in MHB-II; conditions: Enterococcus faecalis, 25, 18 h, read-out: MIC
T11 construct: 25
Procedure: as §1

Enterococcus faecalis 27 = test system: T12, Enterococcus faecalis 27; set-up: CLSI broth microdilution MIC in MHB-II; conditions: Enterococcus faecalis, 27, 18 h, read-out: MIC
T12 construct: 27
Procedure: as §1

Enterococcus faecalis 29 = test system: T13, Enterococcus faecalis 29; set-up: CLSI broth microdilution MIC in MHB-II; conditions: Enterococcus faecalis, 29, 18 h, read-out: MIC
T13 construct: 29
Procedure: as §1

Enterococcus faecium 10 = test system: T14, Enterococcus faecium 10; set-up: CLSI broth microdilution MIC in MHB-II; conditions: Enterococcus faecium, 10, 18 h, read-out: MIC
T14 construct: 10
Procedure: as §1

Enterococcus faecium 1 = test system: Enterococcus faecium 1; set-up: CLSI broth microdilution MIC in MHB-II; conditions: Enterococcus faecium, 1, 18 h, read-out: MIC
Procedure: as §1

Enterococcus faecium 2 = test system: Enterococcus faecium 2; set-up: CLSI broth microdilution MIC in MHB-II; conditions: Enterococcus faecium, 2, 18 h, read-out: MIC
Procedure: as §1

Enterococcus faecium 5 = test system: Enterococcus faecium 5; set-up: CLSI broth microdilution MIC in MHB-II; conditions: Enterococcus faecium, 5, 18 h, read-out: MIC
Procedure: as §1

Enterococcus faecium 9 = test system: Enterococcus faecium 9; set-up: CLSI broth microdilution MIC in MHB-II; conditions: Enterococcus faecium, 9, 18 h, read-out: MIC
Procedure: as §1

[5] = test system: T15, Staphylococcus aureus #1958; set-up: CLSI broth microdilution MIC in MHB-II; conditions: Staphylococcus aureus, 18 h, read-out: MIC
T15 construct: #1958
Procedure: as §1

[6] = test system: T16, Staphylococcus aureus #2310; set-up: CLSI broth microdilution MIC in MHB-II; conditions: Staphylococcus aureus, 18 h, read-out: MIC
T16 construct: #2310
Procedure: as §1

[7] = test system: T17, Staphylococcus aureus #2931; set-up: CLSI broth microdilution MIC in MHB-II; conditions: Staphylococcus aureus, 18 h, read-out: MIC
T17 construct: #2931
Procedure: as §1

[8] = test system: T18, Staphylococcus aureus #2932; set-up: CLSI broth microdilution MIC in MHB-II; conditions: Staphylococcus aureus, 18 h, read-out: MIC
T18 construct: #2932
Procedure: as §1

[9] = test system: T19, Staphylococcus aureus #2933; set-up: CLSI broth microdilution MIC in MHB-II; conditions: Staphylococcus aureus, 18 h, read-out: MIC
T19 construct: #2933
Procedure: as §1

[10] = test system: T20, Staphylococcus aureus #2934; set-up: CLSI broth microdilution MIC in MHB-II; conditions: Staphylococcus aureus, 18 h, read-out: MIC
T20 construct: #2934
Procedure: as §1

[11] = test system: T21, Staphylococcus aureus #2935; set-up: CLSI broth microdilution MIC in MHB-II; conditions: Staphylococcus aureus, 18 h, read-out: MIC
T21 construct: #2935
Procedure: as §1

| Structure (SMILES) | MIC (Enterococcus faecalis 21) | MIC (Enterococcus faecalis 22) | MIC (Enterococcus faecalis 23) | MIC (Enterococcus faecalis 24) | MIC (Enterococcus faecalis 25) | MIC (Enterococcus faecalis 27) | MIC (Enterococcus faecalis 29) | MIC (Enterococcus faecium 10) | MIC (Enterococcus faecium 1) | MIC (Enterococcus faecium 2) | MIC (Enterococcus faecium 5) | MIC (Enterococcus faecium 9) | MIC [5] | MIC [6] | MIC [7] | MIC [8] | MIC [9] | MIC [10] | MIC [11] | further results |
| --- | --- | --- | --- | --- | --- | --- | --- | --- | --- | --- | --- | --- | --- | --- | --- | --- | --- | --- | --- | --- |
| CCCCCCCCCCCCCCCC(=O)N[C@@H](CCCCN)C(=O)NCc1cccc(CN[C@H](C(=O)O)[C@H](O[C@@H]2O[C@H](CN)[C@@H](O)[C@H]2O)[C@H]2O[C@@H](n3ccc(=O)[nH]c3=O)[C@H](O)[C@@H]2O)c1 [compound 2, analogue 2] | 0.13 µg/mL (≈ 0.139 µM) | 0.13 µg/mL (≈ 0.139 µM) | 0.25 µg/mL (≈ 0.268 µM) | 0.25 µg/mL (≈ 0.268 µM) | 0.25 µg/mL (≈ 0.268 µM) | 0.25 µg/mL (≈ 0.268 µM) | 0.13 µg/mL (≈ 0.139 µM) | 1 µg/mL (≈ 1.07 µM) | 1 µg/mL (≈ 1.07 µM) | 1 µg/mL (≈ 1.07 µM) | 1 µg/mL (≈ 1.07 µM) | 0.5 µg/mL (≈ 0.535 µM) | 1 µg/mL (≈ 1.07 µM) | 2 µg/mL (≈ 2.14 µM) | 0.5 µg/mL (≈ 0.535 µM) | 1 µg/mL (≈ 1.07 µM) | 0.5 µg/mL (≈ 0.535 µM) | 0.5 µg/mL (≈ 0.535 µM) | 1 µg/mL (≈ 1.07 µM) | MIC ([1]; read-out: 2 MIC): 0.5 µg/mL (≈ 0.535 µM); MIC (E. faecium ATCC 35667; read-out: 2 MIC): 0.5 µg/mL (≈ 0.535 µM); MIC ([2]; read-out: 2 MIC): 0.5 µg/mL (≈ 0.535 µM); MIC ([3]; read-out: 2 MIC): 2 µg/mL (≈ 2.14 µM); MIC (S. aureus ATCC 29213; read-out: 2 MIC): 1 µg/mL (≈ 1.07 µM); MIC ([4]; read-out: 2 MIC): 1 µg/mL (≈ 1.07 µM) |
| CCCCCCCCCCCCCCCC(=O)N[C@@H](CCCNC(=N)N)C(=O)NCc1cccc(CN[C@H](C(=O)O)[C@H](O[C@@H]2O[C@H](CN)[C@@H](O)[C@H]2O)[C@H]2O[C@@H](n3ccc(=O)[nH]c3=O)[C@H](O)[C@@H]2O)c1 [compound 4, analogue 4] | 0.13 µg/mL (≈ 0.135 µM) | 0.13 µg/mL (≈ 0.135 µM) | 0.13 µg/mL (≈ 0.135 µM) | 0.13 µg/mL (≈ 0.135 µM) | 0.25 µg/mL (≈ 0.26 µM) | < 0.06 µg/mL | < 0.06 µg/mL | 1 µg/mL (≈ 1.04 µM) | 1 µg/mL (≈ 1.04 µM) | 2 µg/mL (≈ 2.08 µM) | 1 µg/mL (≈ 1.04 µM) | 0.5 µg/mL (≈ 0.52 µM) | 2 µg/mL (≈ 2.08 µM) | 2 µg/mL (≈ 2.08 µM) | 1 µg/mL (≈ 1.04 µM) | 2 µg/mL (≈ 2.08 µM) | 1 µg/mL (≈ 1.04 µM) | 1 µg/mL (≈ 1.04 µM) | 2 µg/mL (≈ 2.08 µM) | MIC ([1]; read-out: 4 MIC): 0.25 µg/mL (≈ 0.26 µM); MIC (E. faecium ATCC 35667; read-out: 4 MIC): 0.5 µg/mL (≈ 0.52 µM); MIC ([2]; read-out: 4 MIC): 1 µg/mL (≈ 1.04 µM); MIC ([3]; read-out: 4 MIC): 2 µg/mL (≈ 2.08 µM); MIC (S. aureus ATCC 29213; read-out: 4 MIC): 1 µg/mL (≈ 1.04 µM); MIC ([4]; read-out: 4 MIC): 2 µg/mL (≈ 2.08 µM) |
